Experimental data as given in publication PMC12655457, “Does CytoSorb Interfere with Immunosuppression? A Pharmacokinetic and Functional Evaluation” (Pharmaceutics, 2025).

Tests used:
[1] = Removal of immunosuppressants by chronic dialysis (ex vivo, plasma); type: in vitro ADME, human; settings: for clearance: initial values
Description: (§1) To evaluate the effect of dialysis under clinically relevant conditions, both chronic and acute dialysis settings were simulated using standard Fresenius systems. In all experiments, 1.5 L of citrated human plasma was dialyzed against calcium-free dialysate at 37 °C.
(§2) Prior to circulation, the systems were flushed with 2 L of isotonic saline. Plasma samples were collected at defined time points (15–480 min) and analyzed for immunosuppressants, urea, and albumin. Chronic dialysis represents intermittent high-flow conditions, whereas acute dialysis mimics continuous low-flow therapy used in critically ill patients.
(§3) The clearance (C) of each compound during both the dialysis and the dynamic CytoSorb experiments was calculated using the first-order exponential decay formula:(2) C = V/t ×lnCo/Ct where V = plasma volume, t = treatment time [min], C0 = concentration before starting treatment, Ct = concentration at time t.

[2] = Determination of protein binding by ultrafiltration; type: in vitro ADME; settings: human plasma, ultrafiltration 30 kDa cutoff; read-out: Protein Binding in Plasma, Current Study (converted)
Description: To assess protein binding of the tested immunosuppressants, human plasma was spiked with the respective drugs and urea as a freely diffusible control. Samples were then subjected to ultrafiltration (30 kDa cutoff, 15,000× g, 20 min). The protein-bound fraction was calculated using the following formula:(1) protein binding %= 1−Cfiltrate/Cplasma where cplasma is the concentration of each compound in plasma and cfiltrate is its concentration in the ultrafiltrate.

[3] = Whole blood cell model: immunosuppressant serum levels after CytoSorb treatment; type: in vitro ADME, human; settings: overnight incubation, p < 0.05, n = 6
Description: To investigate whether the in vitro depletion of immunosuppressants by CytoSorb affects immunosuppression, a whole blood cell model was established. The experiment was conducted over two consecutive days. A graphical overview of the setup is provided in Supplementary Figure S1. On day one, freshly drawn human whole blood was incubated overnight at 37 °C with various immunosuppressants, either individually or in combination, to allow for sufficient drug exposure prior to CytoSorb treatment.
Subsequently, the blood was split into two experimental groups: one was treated with CytoSorb in a batch setup, and the other served as an untreated control, incubated under identical conditions at 37 °C on a roller mixer. Following treatment, all samples were allowed to rest for 4 h. After the resting period, blood samples were stimulated with either lipopolysaccharide (LPS) E. coli or with anti-CD3 antibodies. LPS primarily activates monocytes and neutrophils via the TLR4/CD14/MD2 complex, while anti-CD3 specifically stimulates T cells. The stimulation was carried out for 4 h at 37 °C on a roller mixer. Thereafter, the blood samples were centrifuged, and the plasma was collected and stored at −80 °C. Leukocyte activation was assessed by quantification of IL-1β, IL-6, IL-8, and TNF-α.
(§4) MPA was determined using a validated test for the Cobas c311 autoanalyzer from Roche (Basel, Switzerland). 6-MP was quantified by reversed-phase HPLC [17, 18]. After precipitation of the plasma sample with ice cold methanol in ratio 1:5, 30 µL of the supernatant was injected into a Nukleosil 100-5C18, 4.6 × 150 mm C18 column (Macherey-Nagel, Düren, Germany), combined with an Onyx Monolithic C18, 4.6 × 5 mm guard column (Phenomenex, Torrance, CA, USA). The mobile phase consisted of methanol and deionised water (50:50) which was continuously pumped with a flow rate of 0.8 mL/min for five minutes. 6-MP was quantified with a retention time of 2.3 min using an UV detector (325 nm). The quantification of cytokines was determined by Magnetic Luminex Assay with a human premixed Multi Analyte Kit (R&D Systems, Minneapolis, MN, USA). The urea, albumin and total protein levels were measured with the cobas c311 automated analyzer with corresponding test kits from Roche (Penzberg, Germany).

[4] = Dynamic CytoSorb adsorption setup (scaled-down circuit, whole blood); type: in vitro ADME, human; settings: for mean clearance rate: CytoSorb treatment, at 15 min, Equation (2); for adsorption (removal) by CytoSorb: dynamic ex vivo circuit, 400 mL human whole blood, 30 mL cartridge, 4 h
Description: To quantify the depletion of selected immunosuppressants during CytoSorb treatment under dynamic conditions, a scaled-down extracorporeal circulation system was established, consisting of a 30 mL CytoSorb adsorption cartridge and a pediatric tubing set filled with 400 mL of freshly drawn human whole blood (Figure 1b). To distinguish between drug removal by adsorption versus uptake by blood components, a control circuit with an identical setup but an empty cartridge was run in parallel for each experiment. Whole blood from two healthy donors of the same blood group was pooled, anticoagulated with citrate (final concentration: 7 mM), spiked with the immunosuppressants, and divided into two 400 mL blood bags.
Prior to circulation, the entire system was flushed with isotonic saline. Then, one of the prepared blood bags (Group 1 or Group 2) was connected to the circuit and circulated for 30 min at 37 °C without the adsorber cartridge to allow for equilibration. Following this equilibration, a baseline sample (0 min) was collected, and the adsorption column was introduced into the circuit. In the adsorption circuit, samples were collected at 15, 30, 60, 120, 180 and 240 min. In the control circuit, samples were taken at baseline and after 240 min. All blood samples were centrifuged (3500× g, 10 min) to separate plasma, which was stored at −80 °C until further analysis.
as §3, §4

[5] = literature; ref 21 (6-MP), 22 (CsA), 23 (MPR), 24 (MPA), 25 (TAC); cited from earlier work
human whole blood [6] = test: Whole blood cell model: anti-CD3 stimulation, cytokine measurement; type: cell-based; settings: + Anti-CD3, + CytoSorb
Description: (§6) Subsequently, the blood was split into two experimental groups: one was treated with CytoSorb in a batch setup, and the other served as an untreated control, incubated under identical conditions at 37 °C on a roller mixer. Following treatment, all samples were allowed to rest for 4 h. After the resting period, blood samples were stimulated with either lipopolysaccharide (LPS) E. coli or with anti-CD3 antibodies. […] The stimulation was carried out for 4 h at 37 °C on a roller mixer. Thereafter, the blood samples were centrifuged, and the plasma was collected and stored at −80 °C. Leukocyte activation was assessed by quantification of IL-1β, IL-6, IL-8, and TNF-α.

[7] = Removal of immunosuppressants by acute dialysis (CVVHD, ex vivo, plasma); type: in vitro ADME, human
Description: as §1, §2, §3

autologous blood cells = test: Cellular uptake of immunosuppressants by autologous blood cells (static setup); type: in vitro ADME, human; settings: spiked plasma with autologous blood cells 1:1 v/v, n = 3
Description: (§5) Plasma was obtained by centrifugation (3500× g, 10 min) from citrate-anticoagulated human whole blood and spiked with immunosuppressants to defined target concentrations (Table 1). To evaluate adsorption, plasma was incubated with the CytoSorb resin at 1:10 (v/v) for 60 min at 37 °C on a roller mixer. In parallel, a separate aliquot of spiked plasma was incubated with autologous blood cells (1:1, v/v) to assess cellular uptake of immunosuppressants. Untreated spiked plasma served as control (Figure 1a). Samples were collected before and after incubation for subsequent analysis.
MPA was determined using a validated test for the Cobas c311 autoanalyzer from Roche (Basel, Switzerland). 6-MP was quantified by reversed-phase HPLC [17, 18]. […] 6-MP was quantified with a retention time of 2.3 min using an UV detector (325 nm). The quantification of cytokines was determined by Magnetic Luminex Assay with a human premixed Multi Analyte Kit (R&D Systems, Minneapolis, MN, USA). The urea, albumin and total protein levels were measured with the cobas c311 automated analyzer with corresponding test kits from Roche (Penzberg, Germany).

[8] = Static CytoSorb adsorption setup (spiked plasma with CytoSorb resin); type: in vitro ADME, human; settings: plasma:resin 1:10 v/v, 60 min, 37 °C, n = 3
Description: as §5, §4

[9] = parameters: method as in earlier work; settings: literature; ref 23 (methylprednisolone), 24 (mycophenolate), 41 (6-mercaptopurine); cited from earlier work
human whole blood [10] = test: Whole blood cell model: LPS stimulation, cytokine measurement; type: cell-based; settings: + CytoSorb
Description: as §6

| SMILES | removal by dialysis (in words) [1] | clearance [1] | fraction unbound [2] | reduction in serum level following CytoSorb treatment (in words) [3] | mean clearance rate [4] | adsorption (removal) by CytoSorb [4] | Protein Binding in Plasma, Reference [5] | IL-1β serum level (human whole blood [6]; test 1) | IL-6 serum level (human whole blood [6]; test 1) | IL-8 serum level (human whole blood [6]; test 1) | TNF-α serum level (human whole blood [6]; test 1) | IL-1β serum level (human whole blood [6]; test 2) | IL-6 serum level (human whole blood [6]; test 2) | IL-8 serum level (human whole blood [6]; test 2) | TNF-α serum level (human whole blood [6]; test 2) | IL-1β serum level (human whole blood [6]; test 3) | IL-6 serum level (human whole blood [6]; test 3) | IL-8 serum level (human whole blood [6]; test 3) | TNF-α serum level (human whole blood [6]; test 3) | removal by dialysis (in words) [7] | other results |
| --- | --- | --- | --- | --- | --- | --- | --- | --- | --- | --- | --- | --- | --- | --- | --- | --- | --- | --- | --- | --- | --- |
| Sc1ncnc2nc[nH]c12 [6-MP, 6-mercaptopurine] | efficiently removed | ~ 190 mL/min | 0.662 | significant reduction | ~31 mL/min | 47 ± 16% | 39 [21] % | 0 pg/mL | 3 pg/mL | 205 pg/mL | 12 pg/mL | 75 pg/mL | 381 pg/mL | 4175 pg/mL | 46 pg/mL | 70 pg/mL | 30 pg/mL | 686 pg/mL | 41 pg/mL | efficiently removed | clearance ([7]; after 8 h): below 10 mL/min; clearance ([7]; highest value reached): up to 30 mL/min; absorbed / reduced by blood cells (autologous blood cells): 36 ± 6%; reduction of level in plasma by CytoSorb [8]: 33 ± 11%; volume of distribution (Vd) [9]: ≈ 0.9 L/kg; IL-1β serum level (human whole blood [10]; test 1): 354 pg/mL; IL-6 serum level (human whole blood [10]; test 1): 3786 pg/mL; IL-8 serum level (human whole blood [10]; test 1): 6337 pg/mL; TNF-α serum level (human whole blood [10]; test 1): 2920 pg/mL; IL-1β serum level (human whole blood [10]; test 2): 44 pg/mL; IL-6 serum level (human whole blood [10]; test 2): 730 pg/mL; IL-8 serum level (human whole blood [10]; test 2): 2253 pg/mL; TNF-α serum level (human whole blood [10]; test 2): 1762 pg/mL; IL-1β serum level (human whole blood [10]; test 3): 190 pg/mL; IL-6 serum level (human whole blood [10]; test 3): 3799 pg/mL; IL-8 serum level (human whole blood [10]; test 3): 7104 pg/mL; TNF-α serum level (human whole blood [10]; test 3): 1250 pg/mL |
| C[C@H]1C[C@@H]2[C@H]([C@@H](O)C[C@@]3(C)[C@H]2CC[C@]3(O)C(=O)CO)[C@@]2(C)C=CC(=O)C=C12 [MPR, methylprednisolone] | high removal | ~ 75 mL/min | 0.066 | significant reduction | ~49 mL/min | 92 ± 3% | 77 [23] % | 0 pg/mL | 1 pg/mL | 171 pg/mL | 43 pg/mL | 44 pg/mL | 16 pg/mL | 242 pg/mL | 57 pg/mL | 70 pg/mL | 30 pg/mL | 686 pg/mL | 41 pg/mL | moderate removal | reduction of serum levels by CytoSorb (abstract) ([4]; as stated in the abstract, experiment not specified): 92 ± 3%; clearance ([7]; after 8 h): below 10 mL/min; clearance ([7]; highest value reached): ≤ 28 mL/min; reduction of level in plasma by CytoSorb [8]: 91 ± 2%; volume of distribution (Vd) [9]: ≈ 1.4 L/kg; IL-1β serum level (human whole blood [10]; test 1): 354 pg/mL; IL-6 serum level (human whole blood [10]; test 1): 3786 pg/mL; IL-8 serum level (human whole blood [10]; test 1): 6337 pg/mL; TNF-α serum level (human whole blood [10]; test 1): 2920 pg/mL; IL-1β serum level (human whole blood [10]; test 2): 26 pg/mL; IL-6 serum level (human whole blood [10]; test 2): 73 pg/mL; IL-8 serum level (human whole blood [10]; test 2): 1630 pg/mL; TNF-α serum level (human whole blood [10]; test 2): 416 pg/mL; IL-1β serum level (human whole blood [10]; test 3): 190 pg/mL; IL-6 serum level (human whole blood [10]; test 3): 3799 pg/mL; IL-8 serum level (human whole blood [10]; test 3): 7104 pg/mL; TNF-α serum level (human whole blood [10]; test 3): 1250 pg/mL |
